Data set [1] concerns pseudoviral particles expressing the Spike from SARS-CoV-2. The experiment in a line: microbe, parasite or virus in culture. It is filed as cell-based.
The target of another data set is T1, SARS-CoV-2 RBD (Severe acute respiratory syndrome coronavirus 2, UniProt P0DTC2).
T1 construct: hexahistidine (C); made in house; host or cells: FreeStyle 293 F cells
It is filed as binding.

The subject of data set [2] is SARS-CoV-2 S glycoprotein.
Data set [3] has as its system pseudoviral particles bearing the SARS-CoV-1 Spike. Put plainly: microbe, parasite or virus in culture. It is filed as cell-based. The conditions noted are these: Severe acute respiratory syndrome coronavirus, HEK-293T.
In the next data set the test system is VERO-E6 cells. Put plainly: Toxicity on VERO-E6 cells, AquaVivid staining. The conditions noted are these: concentrations up to 100 μM.
The subject of data set [4] is pseudoviral particles bearing the VSV-G. The experiment in a line: microbe, parasite or virus in culture. The conditions noted are these: Vesicular stomatitis virus, HEK-293T. It is filed as cell-based.

Where only a bound is given, the exact number is not on record here.

As to `O[C@H](COc1cccc(OC[C@H](O)CN2CCCCC2)c1)CN1CCCCC1` [(R,S)-VE607], the “fold less potent than the two other enantiomers in SARS-CoV-2 pseudoviral inhibition” value in data set [1] (SARS-CoV-2 S pseudoviral particles) was “about 2 fold”.

Take `CN1CCN(c2ccc(CNC(=O)c3ccno3)cc2)CC1` [SSAA09E2, reference compound]: the “ΔTm (change of melting temperature of RBD)” value on SARS-CoV-2 RBD was −0.7 °C. Moreover, in data set [1], the “effect on the infection of pseudoviral particles” value is listed as “no effect”.

On to `C=CCC(/C=C/OCC(O)CN(CC)CCC)OCC(O)CN(CC)CCC` (stereo not shown) [VE607], for which the “ΔTm (change of melting temperature of RBD)” value on SARS-CoV-2 RBD was −2.3 °C. Moreover, the “effect on Spike conformational landscape (up/down)” value in data set [2] is given as “stabilized the “up” conformation”. Moreover, the half-maximal inhibitory concentration (IC50) in data set [3] is 1.47 µM; in data set [4], above 100 µM; in data set [1] (Severe acute respiratory syndrome coronavirus 2, HEK-293T) it was 3.06 µM. Also, the toxicity entry in the data set with VERO-E6 cells was “no toxicity was observed”.

Consider sACE2, for which the “effect on Spike conformational landscape (up/down)” value in data set [2] was “shifted the conformational landscape of the Spike to the “up” conformation”.

Usually IC50 stands for the point on the concentration scale where inhibition reaches its midpoint. A higher IC50 goes with weaker potency.

The values are drawn from patent publication US20250144087A1, “USE OF VE607 FOR THE TREATMENT OF SARS-COV-2 INFECTIONS AND RELATED DISEASES” (priority 2022, published 2025).
